Reference: ChEMBL document CHEMBL2073980, “Molecular cloning and characterization of the murine bile salt export pump” (Gene, 2000)

Columns and labels:
Assay type in all cases: functional, cell membranes, Membrane vesicle
Set-up in all cases: scale not given: the % may be the effect or the level left
[1] = target: T1, Bsep (bile salt export pump) (Mus musculus, UniProt Q9QY30); assay: TP_TRANSPORTER: inhibition of Taurocholate uptake (Taurochorate: 5 uM, CDCA: 50 uM) in membrane vesicles isolated from Bsep-expressing Balb-3T3 cells; conditions: probe taurocholate, read-out: Activity
T1 sequence (Q9QY30 whole entry): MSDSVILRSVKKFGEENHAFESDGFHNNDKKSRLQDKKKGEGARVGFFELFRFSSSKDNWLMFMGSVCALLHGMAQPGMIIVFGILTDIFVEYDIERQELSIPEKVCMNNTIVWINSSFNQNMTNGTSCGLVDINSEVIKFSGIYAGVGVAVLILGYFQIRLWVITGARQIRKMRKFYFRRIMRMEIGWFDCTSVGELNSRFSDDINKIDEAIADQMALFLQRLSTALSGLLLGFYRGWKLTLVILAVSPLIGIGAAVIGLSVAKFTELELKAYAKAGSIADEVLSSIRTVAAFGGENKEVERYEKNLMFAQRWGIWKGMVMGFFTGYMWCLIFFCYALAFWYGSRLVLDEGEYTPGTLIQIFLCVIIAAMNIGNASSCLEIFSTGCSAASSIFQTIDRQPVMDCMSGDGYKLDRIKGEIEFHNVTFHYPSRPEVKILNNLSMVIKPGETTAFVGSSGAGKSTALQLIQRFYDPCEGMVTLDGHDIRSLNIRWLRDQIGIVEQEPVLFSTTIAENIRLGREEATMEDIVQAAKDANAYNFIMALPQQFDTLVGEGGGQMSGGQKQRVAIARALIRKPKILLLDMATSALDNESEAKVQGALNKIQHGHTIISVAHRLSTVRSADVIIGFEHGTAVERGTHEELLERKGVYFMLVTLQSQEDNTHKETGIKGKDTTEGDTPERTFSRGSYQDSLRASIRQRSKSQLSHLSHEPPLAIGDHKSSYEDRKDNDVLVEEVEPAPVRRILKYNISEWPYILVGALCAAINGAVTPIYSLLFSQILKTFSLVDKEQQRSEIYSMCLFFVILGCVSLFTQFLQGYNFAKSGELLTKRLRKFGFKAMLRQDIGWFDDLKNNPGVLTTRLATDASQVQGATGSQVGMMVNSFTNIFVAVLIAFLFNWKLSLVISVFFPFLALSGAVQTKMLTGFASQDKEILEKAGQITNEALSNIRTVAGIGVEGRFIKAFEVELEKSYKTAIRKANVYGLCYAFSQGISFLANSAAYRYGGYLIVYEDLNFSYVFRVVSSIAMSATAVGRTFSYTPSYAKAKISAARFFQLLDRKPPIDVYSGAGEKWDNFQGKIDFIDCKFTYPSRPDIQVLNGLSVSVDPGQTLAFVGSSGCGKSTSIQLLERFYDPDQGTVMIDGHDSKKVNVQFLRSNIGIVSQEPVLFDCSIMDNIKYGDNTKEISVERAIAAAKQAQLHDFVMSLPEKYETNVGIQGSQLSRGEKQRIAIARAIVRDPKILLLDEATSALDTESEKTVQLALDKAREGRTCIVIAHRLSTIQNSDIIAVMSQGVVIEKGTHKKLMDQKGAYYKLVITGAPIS

[2] = target: T1, Bsep (bile salt export pump); assay: TP_TRANSPORTER: inhibition of Taurocholate uptake (Taurochorate: 5 uM, TCDC: 50 uM) in membrane vesicles isolated from Bsep-expressing Balb-3T3 cells; conditions: probe taurocholate, read-out: Activity
[3] = target: T1, Bsep (bile salt export pump); assay: TP_TRANSPORTER: inhibition of Taurocholate uptake (Taurochorate: 5 uM, TDCA: 50 uM) in membrane vesicles isolated from Bsep-expressing Balb-3T3 cells; conditions: probe taurocholate, read-out: Activity
[4] = target: T2, Bile salt export pump (Mus musculus, UniProt Q9QY30); assay: TP_TRANSPORTER: inhibition of Taurocholate uptake (Taurochorate: 5 uM, UDCA: 50 uM) in membrane vesicles isolated from Bsep-expressing Balb-3T3 cells; conditions: balb/3t3, 50 µM
T2 sequence (Q9QY30 whole entry): T1 sequence (Q9QY30 whole entry)

## C[C@H](CCC(=O)O)[C@H]1CC[C@H]2[C@@H]3[C@H](O)C[C@@H]4C[C@H](O)CC[C@]4(C)[C@H]3CC[C@]12C [CHENODIOL]
[1]
  activity at 50 µM: 11%

## C[C@H](CCC(=O)NCCS(=O)(=O)O)[C@H]1CC[C@H]2[C@@H]3[C@H](O)C[C@@H]4C[C@H](O)CC[C@]4(C)[C@H]3CC[C@]12C [TAUROCHENODEOXYCHOLATE]
[2]
  activity at 50 µM: 25%

## C[C@H](CCC(=O)NCCS(=O)(=O)O)[C@H]1CC[C@H]2[C@@H]3CC[C@@H]4C[C@H](O)CC[C@]4(C)[C@H]3C[C@H](O)[C@]12C [TAURODEOXYCHOLIC ACID]
[3]
  activity at 50 µM: 5%

## C[C@H](CCC(=O)O)[C@H]1CC[C@H]2[C@@H]3[C@@H](O)C[C@@H]4C[C@H](O)CC[C@]4(C)[C@H]3CC[C@]12C [URSODIOL]
[4]
  Activity: 51%
